target: T1, FXR ligand binding domain (Homo sapiens, UniProt Q96RI1); assay: Radioligand binding assay (radioligand displacement, scintillation proximity); conditions: GST-FXR LBD fusion protein on SPA beads, radioligand 2,N-dicyclohexyl-2-[2-(2,4 dimethoxy-phenyl)-benzoimidazol-1-yl]-acetamide, RT 30 minutes
T1 sequence (Q96RI1 1-486): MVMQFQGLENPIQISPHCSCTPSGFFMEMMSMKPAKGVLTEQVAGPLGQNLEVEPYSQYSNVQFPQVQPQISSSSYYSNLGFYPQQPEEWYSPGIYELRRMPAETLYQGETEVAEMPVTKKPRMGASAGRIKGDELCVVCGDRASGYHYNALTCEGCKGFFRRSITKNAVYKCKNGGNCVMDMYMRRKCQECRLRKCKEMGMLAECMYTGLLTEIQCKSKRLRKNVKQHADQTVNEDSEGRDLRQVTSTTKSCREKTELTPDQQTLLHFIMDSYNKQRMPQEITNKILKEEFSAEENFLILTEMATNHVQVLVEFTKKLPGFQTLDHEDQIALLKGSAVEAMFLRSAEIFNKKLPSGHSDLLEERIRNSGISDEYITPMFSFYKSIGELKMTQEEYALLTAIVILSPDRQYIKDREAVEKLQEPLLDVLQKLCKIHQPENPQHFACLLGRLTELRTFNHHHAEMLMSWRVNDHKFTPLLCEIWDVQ
Experimental: The following tests were carried out in order to determine the activity of the compounds of formula I. Background information on the binding assay can be found in: Nichols J S et al. “Development of a scintillation proximity assay for peroxisome proliferator-activated receptor gamma ligand binding domain”, (1998) Anal. Biochem. 257: 112-119.
Bacterial and mammalian expression vectors were constructed to produce glutathione-s-transferase (GST) and Gal4 DNA binding domain (GAL) proteins fused to the ligand binding domain (LBD) of human FXR (aa 193-473). To accomplish this, the portions of the sequences encoding the FXR LBD were amplified by polymerase chain reaction (PCR) from a full-length clone by PCR and then subcloned into the plasmid vectors. The final clone was verified by DNA sequence analysis.
The induction, expression, and subsequent purification of GST-LBD fusion protein was performed in E. coli strain BL21(pLysS) cells by standard methods (Current Protocols in Molecular Biology, Wiley Press, ed. Ausubel et al).
Radioligand Binding Assay
Binding of test substances to the FXR ligand binding domain was assessed in a radioligand displacement assay. The assay was performed in a buffer consisting of 50 mM Hepes, pH 7.4, 10 mM NaCl, 5 mM MgCl2. For each reaction well in a 96-well plate, 40 nM of GST-FXR LBD fusion protein was bound to 10 μg glutathione ytrium silicate SPA beads (Pharmacia Amersham) in a final volume of 50 μl by shaking. A radioligand (eg. 40 nM) of 2,N-dicyclohexyl-2-[2-(2,4 dimethoxy-phenyl)-benzoimidazol-1-yl]-acetamide) was added, and the reaction incubated at RT for 30 minutes in the presence of test compounds followed by scintillation proximity counting. All binding assays were performed in 96-well plates and the amount of bound ligand was measured on a Packard TopCount using OptiPlates (Packard). Dose response curves were performed within a range of concentration from 6×10^−9 M to 2.5×10^−5 M.

O=C(NC1CCCCC1)C(c1c2ccccc2nn1-c1ccccc1)C1CCCCC1 (stereo not shown) [Example 1, 2,N-Dicyclohexyl-2-(2-phenyl-2H-indazol-3-yl)-acetamide] and O=C(NC1CCCCC1)C(c1c2ccccc2nn1-c1ccc(Cl)cc1)C1CCCCC1 (stereo not shown) [Example 4, 2-[2-(4-Chloro-phenyl)-2H-indazol-3-yl]-2,N-dicyclohexyl-acetamide] are within 1.5-fold of each other in IC50: 1920 nM for the first, 1390 nM for the second.

COc1cccc(C(C(=O)NC2CCCCC2)c2c3ccccc3nn2-c2ccccc2)c1 (stereo not shown) [Example 2, N-Cyclohexyl-2-(3-methoxy-phenyl)-2-(2-phenyl-2H-indazol-3-yl)-acetamide] and O=C(NC1CCCCC1)C(c1ccccc1)c1c2ccccc2nn1-c1ccccc1 (stereo not shown) [Example 3, N-Cyclohexyl-2-phenyl-2-(2-phenyl-2H-indazol-3-Y1)-acetamide] are within 1.5-fold of each other in IC50: 9170 nM for the first, 7440 nM for the second.

Compared with O=C(O)c1ccc(NC(=O)C(O)(c2c3c(nn2-c2ccc(Cl)cc2)CCCC3)C2CCCCC2)c(F)c1 (stereo not shown) [Example 5, 4-{2-[2-(4-Chloro-phenyl)-4,5,6,7-tetrahydro-2H-indazol-3-yl]-2-cyclohexyl-2-hydroxy-acetylamino}-3-fluoro-benzoic acid], O=C(O)c1ccc(NC(=O)C(c2c3c(nn2-c2ccc(Cl)cc2)CCCC3)C2CCCCC2)c(F)c1 (stereo not shown) [Example 11, 4-{2-[2-(4-Chloro-phenyl)-4,5,6,7-tetrahydro-2H-indazol-3-yl]-2-cyclohexyl-acetylamino}-3-fluoro-benzoic acid] is 1.6-fold lower in IC50: 2050 nM for the first, 1300 nM for the second.

Going from O=C(NC1CCCCC1)C(c1c2c(nn1-c1ccc(Cl)cc1)CCCC2)C1CCCCC1 (stereo not shown) [Example 6, 2-[2-(4-Chloro-phenyl)-4,5,6,7-tetrahydro-2H-indazol-3-yl]-2,N-dicyclohexyl-acetamide] to O=C(NC1CCCC1)C(c1c2c(nn1-c1ccc(Cl)cc1)CCCC2)C1CCCCC1 (stereo not shown) [Example 8, 2-[2-(4-Chloro-phenyl)-4,5,6,7-tetrahydro-2H-indazol-3-yl]-2-cyclohexyl-N-cyclopentyl-acetamide], the IC50 rises from 155 nM to 1060 nM (6.8-fold). The first is the more potent here.

Going from O=C(O)c1ccc(NC(=O)C(c2c3c(nn2-c2ccc(Cl)cc2)CCCC3)C2CCCCC2)cc1 (stereo not shown) [Example 7, 4-{2-[2-(4-Chloro-phenyl)-4,5,6,7-tetrahydro-2H-indazol-3-yl]-2-cyclohexyl-acetylamino}-benzoic acid] to O=C(O)c1ccc(NC(=O)C(c2c3ccccc3nn2-c2ccc(Cl)cc2)C2CCCCC2)cc1 (stereo not shown) [Example 12, 4-{2-[2-(4-Chloro-phenyl)-2H-indazol-3-yl]-2-cyclohexyl-acetylamino}-benzoic acid], the IC50 rises from 800 nM to 7300 nM (9.1-fold).

Going from O=C(NC1CCCC1)C(O)(c1c2c(nn1-c1ccc(Cl)cc1)CCCC2)C1CCCCC1 (stereo not shown) [Example 9, 2-[2-(4-Chloro-phenyl)-4,5,6,7-tetrahydro-2H-indazol-3-yl]-2-cyclohexyl-N-cyclopentyl-2-hydroxy-acetamide] to O=C(Nc1ccc(OC2(C(=O)O)CC2)cc1F)[C@H](c1c2c(nn1-c1ccc(Cl)cc1)CCCC2)C1CCCCC1 [Example 23, (−)-1-(4-{2-[2-(4-Chloro-phenyl)-4,5,6,7-tetrahydro-2H-indazol-3-yl]-2-cyclohexyl-acetylamino}-3-fluoro-phenoxy)-cyclopropanecarboxylic acid], the IC50 falls from 4860 nM to 21 nM (230-fold). The second is the more potent here.

For O=C(O)c1ccc(NC(=O)C(c2c3ccccc3nn2-c2ccc(Cl)cc2)C2CCCCC2)c(F)c1 (stereo not shown) [Example 13, 4-{2-[2-(4-Chloro-phenyl)-2H-indazol-3-yl]-2-cyclohexyl-acetylamino}-3-fluoro-benzoic acid], the IC50 was 4900 nM.

Reference: patent US8008505B2, “Indazole or 4,5,6,7-tetrahydro-indazole derivatives” (Hoffmann-La Roche Inc., priority 2008, dated 2011)
